Experiment [1] deals with Salmonella typhi T-63. Nature of the experiment: Agar dilution assay, minimum growth inhibition concentration. The experiment is classed as cell-based. The settings on record: Salmonella enterica.
Experiment [2] has as its system Saccharomyces cerevisiae F-7. The description is as above. The experiment is classed as cell-based. As to conditions: Saccharomyces cerevisiae, F7, read-out: Minimum growth-inhibition concentration.
The test system of experiment [3] is Bacillus subtilis NRRL B-558. The description is as above. In kind it is cell-based. The settings on record: NRRLB558. As to the method: (§1) The minimum of microorganism growth inhibition concentrations of benastatins A and B were determined for various bacteria, east and fungi according to a conventional agar dilution assay method. It will be seen from Table 1 that benastatins A and B have a satisfactory antimicrobial activity, particularly against gram-positive bacteria, etc.

For experiment [4], the system named is Corynebacterium bovis 1810. The experiment is described as above. The experiment is classed as cell-based. The protocol: as §1
Experiment [5] relates to Bacillus cereus ATCC10702. The description is as above. The experiment is classed as cell-based. The protocol:
as §1

In experiment [6] the test system is Cochliobolus miyabeanus. The description is as above. The experiment is classed as cell-based. The settings on record: Bipolaris oryzae. The protocol: as §1
The test system of experiment [7] is Micrococcus luteus FDA16. The description is as above. In kind it is cell-based. The protocol:
as §1

Experiment [8] has as its system Staphylococcus aureus Smith. Described as above. In kind it is cell-based. As to the method:
as §1

The subject of experiment [9] is Staphylococcus aureus MS9610. Described as above. The experiment is classed as cell-based. As to the method: as §1
Experiment [10] concerns Cryptococcus neoformans F-10. The experiment is described as above. In kind it is cell-based. As to conditions: F10. As to the method:
as §1

The target in experiment [11] is T1, glutathione transferase (Rattus norvegicus, UniProt P04905).
T1 construct: obtained from a homogenate of rat liver; from tissue; host or cells: rat liver homogenate, partially purified by DEAE-cellulose column and ammonium sulfate salting-out
Nature of the experiment: Glutathione transferase inhibition activity (3,4-dichloronitrobenzene/glutathione, absorption at 345 nm). In kind it is biochemical. As to the method: The glutathione transferase inhibition activity was determined by a modified method based on the known method described in Biochemical and Biophysical Research Communications, 112, 980-985 (1983).
A test tube was charged with a solution mixture consisting of (a) 0.1 ml of 90 mM glutathione (reduction type), (b) 0.05 ml of 20 mM 3,4-dichloronitrobenzene, (c) 1.7 ml of 0.1M potassium phosphate buffer solution (pH 7.4) and (d) 0.1 ml of an aqueous solution containing the test compound. The solution mixture was heated to 37° C. for 3 minutes, and admixed with 0.05 ml of a glutathione transferase solution to effect a reaction at 37° C. for 30 minutes. The glutathione transferase solution employed was one which had been obtained from a homogenate of rat liver and which had been patially refined by means of a DEAE-cellulose column and of salting out-operation with ammonium sulfate.
After the completion of the reaction, the sample was measured for the light absorption (a) at 345 nm. At the same time, a control sample which was free of the test compound and which contained only the buffer solution was measured for the light absorption (b) at 345 nm.
The glutathione transferase inhibition activity was determined according to the formula: […]
IC50, which is the concentration of a test compound required for 50% inhibition, was recorded.

≈ marks a conversion by molar mass, not a printed value. Where only a bound is given, the exact number is not on record here.

T1 sequence (P04905 2-218 limits assumed): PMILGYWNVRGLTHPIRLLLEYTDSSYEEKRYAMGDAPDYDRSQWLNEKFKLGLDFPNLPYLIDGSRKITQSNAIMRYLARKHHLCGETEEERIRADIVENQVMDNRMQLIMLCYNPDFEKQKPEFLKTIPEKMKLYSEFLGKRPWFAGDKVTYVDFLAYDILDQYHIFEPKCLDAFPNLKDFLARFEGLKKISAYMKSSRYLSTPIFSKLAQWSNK

Consider `CCCCCc1cc2c(c(O)c1C(=O)O)-c1cc3c(c(O)c1CC2)C(=O)c1c(O)cc(O)cc1C3(C)C` [Benastatin B, benastatin B], for which the MIC was over 50 µg/mL in [1]; over 50 µg/mL in [2]; 3.12 µg/mL (≈ 6.21 µM) in experiment [3]; 3.12 µg/mL (≈ 6.21 µM) in [4]; 3.12 µg/mL (≈ 6.21 µM) in experiment [5]; over 25 µg/mL in experiment [6]. The MIC stood at 3.12 µg/mL (≈ 6.21 µM) in experiment [7], 3.12 µg/mL (≈ 6.21 µM) in [8], 3.12 µg/mL (≈ 6.21 µM) in experiment [9] and 50 µg/mL (≈ 99.5 µM) in experiment [10]. For the same molecule, 1830 nM corresponded to half-maximal inhibition in [11] (IC50).

Values taken from patent US5117052A, “Physiologically active substances, benastatins A and B, and production and use thereof” (priority 1990, dated 1992).
